Data taken from PMC13047053, “Crystal structure of human INPP5K with an allosteric inhibitor reveals the structural basis for species specific potency” (Scientific Reports, 2026).

Target: T1, human SHIP2 (Homo sapiens, UniProt O15357)
T1 construct: full-length human SHIP2 (aa 1–1 258) containing a C-terminal FLAG-tag; FLAG (C); made in house; host or cells: Expi293 cells (pcDNA3.4, transient)
T1 sequence (O15357 1-1258): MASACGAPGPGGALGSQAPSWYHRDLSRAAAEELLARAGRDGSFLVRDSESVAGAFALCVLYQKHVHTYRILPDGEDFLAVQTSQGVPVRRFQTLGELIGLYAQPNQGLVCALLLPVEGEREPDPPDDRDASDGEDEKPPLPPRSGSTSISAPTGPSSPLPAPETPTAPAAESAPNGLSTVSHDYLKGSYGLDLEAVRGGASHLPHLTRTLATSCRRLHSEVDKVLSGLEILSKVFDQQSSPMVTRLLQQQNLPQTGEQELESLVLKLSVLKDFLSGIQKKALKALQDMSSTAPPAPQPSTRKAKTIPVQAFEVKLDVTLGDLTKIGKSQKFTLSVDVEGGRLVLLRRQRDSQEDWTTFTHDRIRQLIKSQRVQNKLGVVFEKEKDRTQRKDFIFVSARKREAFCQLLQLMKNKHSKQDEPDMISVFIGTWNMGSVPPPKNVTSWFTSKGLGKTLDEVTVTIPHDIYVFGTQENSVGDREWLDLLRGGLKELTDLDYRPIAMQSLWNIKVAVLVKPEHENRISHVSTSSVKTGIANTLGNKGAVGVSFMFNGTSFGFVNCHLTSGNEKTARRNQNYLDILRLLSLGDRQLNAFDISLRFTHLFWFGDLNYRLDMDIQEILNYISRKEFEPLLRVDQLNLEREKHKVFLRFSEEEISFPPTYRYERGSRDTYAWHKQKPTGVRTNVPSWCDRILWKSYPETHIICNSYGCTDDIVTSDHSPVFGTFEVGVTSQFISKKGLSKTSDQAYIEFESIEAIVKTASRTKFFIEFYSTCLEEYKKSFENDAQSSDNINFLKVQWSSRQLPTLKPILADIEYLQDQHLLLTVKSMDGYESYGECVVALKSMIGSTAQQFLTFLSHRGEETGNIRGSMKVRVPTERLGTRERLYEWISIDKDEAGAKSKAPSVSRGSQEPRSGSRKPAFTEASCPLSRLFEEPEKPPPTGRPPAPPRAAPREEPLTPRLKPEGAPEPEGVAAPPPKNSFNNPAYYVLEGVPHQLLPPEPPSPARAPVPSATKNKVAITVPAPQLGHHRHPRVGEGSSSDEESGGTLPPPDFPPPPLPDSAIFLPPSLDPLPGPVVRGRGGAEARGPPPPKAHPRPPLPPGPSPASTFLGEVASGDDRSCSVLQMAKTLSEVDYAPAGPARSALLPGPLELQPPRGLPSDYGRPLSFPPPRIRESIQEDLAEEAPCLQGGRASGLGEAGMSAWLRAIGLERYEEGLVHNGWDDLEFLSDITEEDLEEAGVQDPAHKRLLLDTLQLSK
Test: Inorganic phosphate detection assay for phosphatase inhibition
Type: biochemical
Conditions: 20 µM diC8-PI(3,4,5)P3, 20 min
Source text: The protein purification is described in detail elsewhere. Briefly, full-length human INPP5K (amino acids 1–448, UniProt ID: Q9BT40), rat INPP5K (aa 1–446, UniProt ID: Q9R0B6), mouse INPP5K (aa 1–468, UniProt ID: Q8C5L6), hamster INPP5K (aa 1–453, UniProt ID: G3HTF6), guinea pig INPP5K (aa 1–473, UniProt ID: H0V8T7) containing an N-terminal FLAG-tag, full-length human SHIP2 (aa 1–1 258) containing a C-terminal FLAG-tag, and full-length human PIPP (amino acids 1–1 006) containing an N-terminal His8-tag were all cloned into the pcDNA3.4 expression vector and transiently expressed in Expi293 cells (Thermo Fisher Scientific). The PH domain of human TAPP1 (amino acids 180–404) containing an N-terminal GST-tag was expressed in a pGEX6P1 expression vector (GE Healthcare) in E. coli strain BL21 ((Merck KGaA, Darmstadt, Germany)), following IPTG induction at 37 °C for 5 h. All the FLAG-tagged INPP5Ks and hSHIP2 were purified using affinity columns containing DDDDK-tagged protein purification gel (MBL, Medical & Biological Laboratories Co., Ltd., Tokyo, Japan), followed by size-exclusion chromatography with Superdex 200 columns (GE Healthcare). His8-tagged hPIPP was purified using Ni–NTA Superflow (Qiagen) and Superdex 200 columns. The GST-tagged hTAPP1 domain was purified using a Glutathione Sepharose 4B (GE Healthcare) and Superdex 200 columns. The purity of the protein obtained was evaluated using SDS-PAGE.
The release of inorganic phosphate was measured using a PiPer Phosphate Assay Kit (Thermo Fisher Scientific), according to the manufacturer’s instructions, but with some modifications. Enzyme reactions were performed in a final volume of 10 µL per well in a 384-well nonbinding black plates (Greiner Bio-One International, GmbH, Kremsmünster, Austria). The reaction mixtures containing 20 µM diC8-PI(3,4,5)P₃ and each enzyme (human INPP5K, mouse INPP5K, rat INPP5K, hamster INPP5K, guinea pig INPP5K, human SHIP2, or human PIPP) in reaction buffer (50 mM Tris–HCl pH 7.0, 150 mM NaCl, 7.5 mM MgCl₂, 0.03% Igepal CA-630, 0.03% gelatin), with or without various concentrations of inhibitor, were incubated for 20 min at room temperature. The reactions were then stopped and detection reactions were initiated by adding 5 µL of detection mix 1 (60 mM EDTA, 12 U/mL maltose phosphorylase, and 0.6 mM maltose in 100 mM Tris–HCl pH 8.0). After incubation for 60 min at room temperature, 5 µL of detection mix 2 (8 U/mL glucose oxidase, 0.8 U/mL HRP, and 100 µM Amplex Red in 100 mM Tris–HCl pH 8.0) was added, and the mixture was incubated for a further 30 min at room temperature in the dark. The fluorescence generated was measured using an Envision plate reader at 531/590 nm (excitation/emission), and the percentage inhibition was calculated as described above.

CC(C)c1sc(NC(=O)c2ccccc2)c(C(=O)O)c1-c1ccccc1 [CPD-1]
IC50: > 100 µM
